Experiments:
[1] = Rat PK at equimolar dose to Ezogabine (20 mg/kg) in 0.5% methylcellulose; conditions: for AUClast/D / Cmax/D: male jugular vein cannulated rats, dose equimolar to Ezogabine 20 mg/kg, 0.5% methylcellulose in water, analyte the dosed prodrug; for AUClast/D: 24 hours; for Exposure of ezogabine (dose normalized AUC) compared with ezogabine itself: rats, equimolar dose to Ezogabine 20 mg/kg
Experimental: (§1) Blood samples were collected at the same time points over 24 hours to generate a concentration time profile. Two male rats were dosed per group. Plasma samples were analyzed by LC/MS/MS and the resulting concentration time profiles and PK parameters are provided.
as §1, §1

[2] = Acid and organic solution stability, HPLC-UV 250 nm; conditions: for Degradation / conversion to ezogabine in solution (summary) / Ezogabine Area / Appearance of the stability solution: 5 mg/mL; for Degradation / conversion to ezogabine in solution (summary): up to 3 weeks
Experimental: An HPLC-UV Vis method was developed using 0.1% Formic acid in water as mobile phase A and 0.1% Formic acid in acetonitrile as mobile Phase B. A gradient method was developed ramping from 10% A to 90% B over 8 minutes and then returning to 10% A at 8.5 minutes on a 4.6×50 mm Zorbax C-18 column. Injections of 10 uL of stability solutions were injected for analyte detection.
[…] Aliquots were collected at serial time points and then diluted to a nominal concentration of 100 ug/mL for injection to the HPLC and 250 nm monitored by the diode array detector. Data at approximately 10 days is presented.
Aliquots were collected at serial time points and then diluted to a nominal concentration of 100 ug/mL for injection to the HPLC and 250 nm monitored by the diode array detector.
(§2) It was also evaluated at 2 N HCl at 37° C. Aliquots were collected at serial time points and then diluted to a nominal concentration of 100 ug/mL for injection to the HPLC and 250 nm monitored by the diode array detector.
as §2, §2, §2

[3] = Solvent solubility assessment by visual inspection; assay type: physicochemical; conditions: 0.1N Na2HPO4
Experimental: Compounds were weighed and placed into a 4 dram vials and solvents were added to the target concentration. Compounds were vortex and visually inspected for particulates and considered soluble if clear upon visual inspection with and without magnification. Solubility was reported as either greater than (>) or less than (<) from the prepared concentration. […] It was evaluated at 10 mg/mL in 0.1 N NaCl and was freely soluble. It was evaluate at 1 mg/mL in 0.1 N NaOH and 0.1 N Na2HPO4 and was freely soluble. In ethanol and methanol it was freely soluble at a concentration of 75 mg/mL. […] It was freely soluble at 75 mg/mL in methanol and ethanol. It was soluble at 1 mg/mL in 1N HCl.

[4] = Stability in solvents on the benchtop exposed to light, HPLC-UV 230 nm; assay type: physicochemical
Experimental: Compounds in solvent were left on the benchtop exposed to light for up to 7 days since it is known that Compound 1 will degrade with light within 3-7 days.
Stability was assessed by taking an aliquot from the solubility vials at each test day. A single replicate was injected for each test condition.
Samples were injected onto an HPLC system with an aqueous mobile phase and acetonitrile organic phase and compounds were separated on a C8 50×2 mm column. Wavelength 230 nm was monitored for absorption and integrated for peak area while the mass spectrometer was used to confirm mass. Samples were tested on Day 1 and on subsequent days through Day 7.

[5] = In vitro mouse plasma stability at 37° C.; assay type: in vitro ADME; conditions: 1000 ng/mL
Experimental: (§3) Plasma was collected by the biomaterial vendor and kept frozen at −20° C.
(§4) The samples were analyzed by HPLC separation and mass spectrometry detection for prodrug amount, relative to a baseline time 0 control sample. Triplicate samples were generated at each time point and the peak area response was averaged and converted to a percent of baseline control.

[6] = In vitro rat plasma stability at 37° C.; assay type: in vitro ADME
Experimental: as §3, §4

[7] = Pharmacokinetics of ezogabine prodrugs in rat (IV, IM, PO); conditions: for Exposure of the prodrug itself in systemic circulation: rat, in vivo, po
Experimental: (§5) Blood was diluted by 10% with these stabilizers.
(§6) Extraction of the molecules was conducted by taking a 50 uL aliquot of plasma and adding 200 uL of acetonitrile containing 200 ng/mL tolbutamide as the internal standard. Samples were precipitated in a 96 well plate, centrifuges and an aliquot transferred to a new plate, dried down under heat and nitrogen and then reconstituted in the initial mobile phase conditions of the LC-MS/MS method. […] A standard curve was prepared from 5000 ng/mL to 1 ng/mL for each analyte. Concentration data from the bioanalytical run was analyzed by Phoenix Winnonlin version 8 for noncompartmental PK analysis, plotting of concentration time curves and tabulation of PK parameters.
150 uL of blood were collected at predesignated time points. At completion of the study animals were asphyxiated by carbon dioxide gas and exsanguinated for euthanasia.

[8] = system: MES induced seizures; test: SD rat MES test after IM Compound 4; assay type: in vivo; conditions: IM 75 mg/kg
Experimental: All treatments were at 0.083, 0.25, 0.5, 1, 2, 4, and 8 hours prior to the administration of MES test, where 6 seconds where 6 seconds without a seizure was considered protected.

[9] = system: flicks/licks after intraplantar 5% formalin; test: Formalin inflammatory pain model; assay type: in vivo, CD-1 mouse; conditions: SC 100 mg/kg in water 30 minutes before formalin; both phases (0-10 min, 15-40 min)
Experimental: Compound 4 was assessed in the rat formalin inflammatory model. The number of flicks/licks of a male CD-1 mouse in the acute phase 0-10 minute and the inflammatory phase from 15-40 min after intraplantar administration of 50 μL of 5% formalin was recorded. […] Data is presented over the duration of the observation periods in 2 minute bins.

[10] = system: mechanical hypersensitivity in the CCI model; test: CCI model of neuropathic pain (pin prick, von Frey hairs); assay type: in vivo, Sprague Dawley rat; conditions: 1 h after pretreatment
Experimental: Compound 3 was tested for reversal of mechanical hypersensitivity to the pin prick test for hindlimb paw withdraw and the von Frey hairs for gram force mechanical allodynia in the CCI model of neuropathic pain. Male Sprague Dawley rats (n=8/group) were tested for baseline sensitivity on Day 1 (ipsilateral and contralateral paws) and administered XYG-203 orally; 40 mg/kg on Day 1, 20 mg/kg Day 3, 10 mg/kg Day 5, 5 mg/kg Day 7, 1 mg/kg Day 10 and baseline on Day 12. Mechanical hypersensitivity was tested 1 h after pretreatment. Data (mean±SD) were analyzed with a repeated measures ANOVA with Dunnet's adjustment for multiple comparisons.

[11] = Pharmacokinetics of ezogabine prodrugs in mouse (SC, PO); conditions: male mice, PO 20 mg/kg Cmpd 1 dosed
Experimental: as §5
as §6, with “noncompartmental sparse sampling” for “noncompartmental”
Animals were asphyxiated by carbon dioxide gas, blood was collected by cardiac stick and they were euthanized by cervical dislocation.

[12] = patients receiving ezogabine (POTIGA); cited from earlier work
[13] = Methanol, room temp., normal light, 437 h

With `CCOC(=O)Nc1ccc(NCc2ccc(F)cc2)cc1NC(=O)[C@H](N)CO` [Compound 6] the AUClast/D [1] was 199 ng·h/mL/mg/kg, the Cmax/D [1] was 233 ng/mL/mg/kg and the “Exposure of ezogabine (dose normalized AUC) compared with ezogabine itself” value [1] was “similar”. For the same compound, the “Degradation / conversion to ezogabine in solution (summary)” value (“Degradation / conversion to ezogabine” for short) [2] was “very little degradation to ezogabine”, the “Ezogabine Area” value ([2]; 1N HCl, room temp., normal light, 437 h) was 58 mAU and the “Ezogabine Area” value ([2]; 2N HCl 37 C., 437 h) was 461 mAU. For the same compound, the “Ezogabine Area” value ([2]; 2N HCl, room temp., normal light, 437 h) was 177 mAU, the “Appearance of the stability solution” value ([2]; 18 days) was “remained clear and colorless through Day 18” and the “Ezogabine Area” value [2, 13] was 184 mAU.
With `CCOC(=O)Nc1ccc(NCc2ccc(F)cc2)cc1NC(=O)[C@@H](N)CCCCN` [Compound 4] the Solubility [3] was >1000 µg/mL, the Stability in solvent ([4]; all test conditions except 0.1N NaOH, over 4 days) was “stable” and the Plasma stability [5] was “degrades by 6 hours”. For the same compound, the Percent remaining ([6]; at 23 h) was “below 50%”, the “Exposure of the prodrug itself in systemic circulation” value [7] was “slightly more detectable” and the “Protection from MES induced seizures” value ([8]; at 1 h post dose) was “almost fully protected”. For the same compound, the “Protection from MES induced seizures” value ([8]; from 2 through 8 hours post dose) was “fully protected”, the AUClast/D [1] was 6.26 ng·h/mL/mg/kg and the Cmax/D [1] was 2.34 ng/mL/mg/kg. The “Exposure of ezogabine (dose normalized AUC) compared with ezogabine itself” value [1] was “similar”, the “Reduction in behavioral response (flicks/licks) compared to vehicle” value [9] was 50% and the “Degradation / conversion to ezogabine” value [2] was “very little degradation to ezogabine”. The “Ezogabine Area” value ([2]; 0.1N HCl, room temp., normal light, 269 h) was 0 mAU, the “Ezogabine Area” value ([2]; 1N HCl, room temp., normal light, 269 h) was 0 mAU and the “Ezogabine Area” value ([2]; 2N HCl 37 C., 436 h) was 167 mAU. For the same compound, the “Ezogabine Area” value ([2]; 2N HCl, room temp., normal light, 269 h) was 38 mAU, the “Appearance of the stability solution” value ([2]; 18 days) was “remained clear and colorless through Day 18” and the “Ezogabine Area” value [2, 13] was 0 mAU. The “Ezogabine Area” value ([2]; PBS, room temp., normal light, 435 h) was 0 mAU.
For `CCOC(=O)Nc1ccc(NCc2ccc(F)cc2)cc1NC(=O)OC(C)OC(=O)C(C)C` (stereo not shown) [Compound 3], the Solubility [3] was <1000 µg/mL, the Stability in solvent ([4]; 0.1N HCl, benchtop exposed to light) was “stable over 4 days” and the Stability in solvent ([4]; 1N HCl over 7 days, benchtop exposed to light) was “not stable”. The Stability in solvent ([4]; ethanol and methanol, benchtop exposed to light, degradation on Day 4) was “soluble and stable through 3 days”, the “Time to full degradation in vitro” value [5] was ≤ 1 h and the “Time to full degradation in vitro” value ([6]; 1000 ng/mL) was ≤ 1 h. The “Exposure of the prodrug itself in systemic circulation” value [7] was “very little exposure”, the “Mechanical hypersensitivity versus baseline” value ([10]; oral 5 mg/kg) was 95% confidence intervals did not cross the baseline mean and the “Gram force to paw lift (von Frey hairs)” value ([10]; oral 40 mg/kg) was “increased the gram force to paw lift significantly”. The “Reduction of the latency of neuropathic ipsilateral paw withdrawal” value ([10]; oral 40 mg/kg, pin prick, p=0.0003) was 9.2 s, the AUClast/D [1] was 0.0136 ng·h/mL/mg/kg and the Cmax/D [1] was 0.0273 ng/mL/mg/kg. The “Total exposure of ezogabine on a given molar dose relative to ezogabine” value ([1]; male, rat, in vivo) was > 2 fold, the “Appearance of the stability solution” value [2] was “clear and colorless through Day 18” and the “Degradation / conversion to ezogabine” value [2] was “converts to ezogabine under acidic conditions but does not in organic solvent”. For the same compound, the “Ezogabine Area” value ([2]; 0.1N HCl, room temp., normal light, 433 h) was 400 mAU, the “Ezogabine Area” value ([2]; 1N HCl, room temp., normal light, 97 h) was 2881 mAU and the “Appearance of the stability solution” value ([2]; 9 days) was “turned a golden yellow by Day 9”. For the same compound, the “Ezogabine Area” value ([2]; Acetonitrile, room temp., normal light, 435 h) was 51 mAU, the “Ezogabine Area” value ([2]; Ethanol, room temp., normal light, 390 h) was 43 mAU and the “Ezogabine Area” value ([2]; Methanol, room temp., normal light, 435 h) was 41 mAU.
With `CCOC(=O)Nc1ccc(NCc2ccc(F)cc2)cc1N` [Compound 1, ezogabine] the Cmax/D ([11]; analyte Cmpd 1) was 148 ng/mL/mg/kg, the AUClast/D ([11]; analyte Cmpd 1, AUClast 6 h) was 190 ng·h/mL/mg/kg and the AUClast/D ([7]; male Sprague Dawley rats, PO 20 mg/kg Cmpd 1 dosed, analyte Cmpd 1, AUClast […] h) was 280 ng·h/mL/mg/kg. The “Appearance of the stability solution” value ([2]; acid solutions, room temperature) was “turning light purple (indicating degradation) by Day 2”, the Solubility ([2]; low pH) was “soluble” and the “Behaviour at low pH” value ([2]; low pH (1 N HCl) and simulated gastric fluid) was “degrades and forms a chromophore dimer”. The Solubility ([2]; neutral pH) was “not soluble”, the “Appearance of the stability solution” value ([2]; organic solvent solutions, room temperature) was “did not begin turning purple until Day 7” and the “Adverse reaction: abnormal coordination” value [12] was 7%. The “Adverse reaction: aphasia” value [12] was 4%, the “Adverse reaction: asthenia” value [12] was 5% and the “Adverse reaction: balance disorder” value [12] was 4%. For the same compound, the “Adverse reaction: blurred vision” value [12] was 5%, the “Adverse reaction: confusional state” value [12] was 9% and the “Adverse reaction: diplopia” value [12] was 7%. The “Adverse reaction: disturbance in attention” value [12] was 6%, the “Adverse reaction: dizziness” value [12] was 23% and the “Adverse reaction: dysarthria” value [12] was 4%. The “Adverse reaction: fatigue” value [12] was 15%, the “Adverse reaction: gait disturbance” value [12] was 4% and the “Adverse reaction: memory impairment” value [12] was 6%. The “Adverse reaction: somnolence” value [12] was 22%, the “Adverse reaction: tremor” value [12] was 8% and the “Adverse reaction: vertigo” value [12] was 8%.
